According to patent US9296734B2 (AMGEN INC., priority 2013, dated 2016):
Where two headings read alike, the source gives them in different places.

Assays:
[1] = tested on: Aβ40 in conditioned medium of cells stably expressing Amyloid Precursor Protein (APP); experiment: In vitro BACE cell-based assay (Aβ40 sandwich ELISA); settings: Homo sapiens, read-out: HEK cell assay IC50
Method in brief: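 Secreted Aβ40 was quantified by sandwich ELISA (pAb40 capture, biotinylated 6E10 detection, Europium time-resolved fluorescence). IC50 derived from percent inhibition versus concentration.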

[2] = biological target: Cathepsin D (Cat D) (Homo sapiens (Human), UniProt P07339); experiment: In vitro enzymatic Cathepsin D (Cat D) FRET assay; format: biochemical; settings: read-out: CatD IC50
Cathepsin D (Cat D), sequence (P07339 65-412, species assumed): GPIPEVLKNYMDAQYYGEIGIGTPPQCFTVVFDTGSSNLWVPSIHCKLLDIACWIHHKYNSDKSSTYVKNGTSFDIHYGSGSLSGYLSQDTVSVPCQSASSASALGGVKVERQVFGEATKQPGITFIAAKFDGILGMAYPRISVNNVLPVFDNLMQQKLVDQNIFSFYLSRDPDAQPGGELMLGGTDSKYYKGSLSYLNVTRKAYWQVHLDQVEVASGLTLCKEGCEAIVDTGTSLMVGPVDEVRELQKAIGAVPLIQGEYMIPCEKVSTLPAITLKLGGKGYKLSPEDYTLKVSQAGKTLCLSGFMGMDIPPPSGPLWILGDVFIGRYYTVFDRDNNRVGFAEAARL
Method in brief: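 CHO-expressed recombinant Cat D cleaves a fluorophore/quencher FRET peptide (20 nM) in 0.05 M citrate pH 3.5, 5 mM CHAPS, 10% DMSO final, over 1 h. Tris addition neutralizes pH to stop the reaction; fluorescence read at excitation 500 nm, emission 580 nm.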

[3] = biological target: Beta Secretase enzyme (BACE) (Homo sapiens (Human), UniProt P56817); experiment: In vitro enzymatic BACE FRET assay; format: biochemical; settings: read-out: BACE 1 FRET assay IC50
Beta Secretase enzyme (BACE), sequence (P56817 46-501): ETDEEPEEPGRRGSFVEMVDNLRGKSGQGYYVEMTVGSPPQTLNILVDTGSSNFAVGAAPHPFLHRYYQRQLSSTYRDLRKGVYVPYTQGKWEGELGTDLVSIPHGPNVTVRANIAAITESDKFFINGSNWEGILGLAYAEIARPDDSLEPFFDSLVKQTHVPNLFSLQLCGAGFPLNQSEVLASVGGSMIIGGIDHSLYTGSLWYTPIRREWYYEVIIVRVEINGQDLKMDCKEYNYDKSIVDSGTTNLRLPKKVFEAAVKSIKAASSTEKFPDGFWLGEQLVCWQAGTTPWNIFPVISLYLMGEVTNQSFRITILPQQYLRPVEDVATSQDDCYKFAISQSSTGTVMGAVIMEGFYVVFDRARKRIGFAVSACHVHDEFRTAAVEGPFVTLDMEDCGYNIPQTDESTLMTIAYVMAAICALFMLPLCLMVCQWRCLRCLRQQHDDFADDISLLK
Method in brief: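 Reactions ran in 0.05 M acetate pH 4.2 with 10% DMSO final and 100 uM genapol. They were started with 50 nM peptide FRET substrate (fluorophore and quencher flanking the BACE cleavage site) and incubated one hour. Tris addition raised the pH to neutral to stop the reaction before fluorescence reading.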

[4] = HEK293, average IC50, HEK cell assay
[5] = average IC50, cathepsin D enzyme assay
[6] = average IC50, BACE enzyme assay

## NC1=N[C@](CF)(c2cc(-c3ccc4ccc(F)cc4n3)ccc2F)C[C@@H](C(F)(F)F)O1 [Example 117, (4S,6S)-4-(2-fluoro-5-(7-fluoroquinolin-2-yl)phenyl)-4-(fluoromethyl)-6-(trifluoromethyl)-5,6-dihydro-4H-1,3-oxazin-2-amine]
[1]; [4]
  IC50: > 15.6 µM
[2]; [5]
  IC50: > 133 µM
[3]; [6]
  IC50: > 40 µM

## NC1=N[C@](CF)(c2cc(-c3cncc(-c4nnco4)c3)ccc2F)C[C@@H](C(F)(F)F)O1 [Example 118, (4S,6S)-4-(5-(5-(1,3,4-oxadiazol-2-yl)pyridin-3-yl)-2-fluorophenyl)-4-(fluoromethyl)-6-(trifluoromethyl)-5,6-dihydro-4H-1,3-oxazin-2-amine]
[1]; [4]
  IC50: > 15.6 µM
[2]; [5]
  IC50: 454 µM
[3]; [6]
  IC50: 8.36 µM

## COC1CCN(C(=O)Nc2ccc(F)c([C@]3(C)C[C@@H](C(F)(F)F)OC(N)=N3)c2)CC1 [Example 119, N-(3-((4S,6S)-2-amino-4-methyl-6-(trifluoromethyl)-5,6-dihydro-4H-1,3-oxazin-4-yl)-4-fluorophenyl)-4-methoxypiperidine-1-carboxamide]
[1]; [4]
  IC50: 2.08 µM
[2]; [5]
  IC50: > 400 µM
[3]; [6]
  IC50: 55.8 µM

## C[C@@]1(c2cc(NC(=O)N3CC=CCC3)ccc2F)C[C@@H](C(F)(F)F)OC(N)=N1 [Example 123, N-(3-((4S,6S)-2-amino-4-methyl-6-(trifluoromethyl)-5,6-dihydro-4H-1,3-oxazin-4-yl)-4-fluorophenyl)-5,6-dihydropyridine-1(2H)-carboxamide]
[1]; [4]
  IC50: 0.908 µM
[2]; [5]
  IC50: > 400 µM
[3]; [6]
  IC50: 11.5 µM

## N#Cc1ccc(C#Cc2ccc(F)c([C@]3(CF)C[C@@H](C(F)(F)F)OC(N)=N3)c2)nc1 [Example 125, 6-((3-((4S,6S)-2-amino-4-(fluoromethyl)-6-(trifluoromethyl)-5,6-dihydro-4H-1,3-oxazin-4-yl)-4-fluorophenyl)ethynyl)nicotinonitrile]
[1]; HEK293, HEK cells, average
  IC50: 0.509 µM
[2]; average
  IC50: > 400 µM
[3]; average
  IC50: 0.509 µM

## CNC(=O)c1ccc(C#Cc2ccc(F)c([C@]3(CF)C[C@@H](C(F)(F)F)OC(N)=N3)c2)nc1 [Example 126, 6-((3-((4S,6S)-2-amino-4-(fluoromethyl)-6-(trifluoromethyl)-5,6-dihydro-4H-1,3-oxazin-4-yl)-4-fluorophenyl)ethynyl)-N-methylnicotinamide]
[1]; HEK293, HEK cells, average
  IC50: 7.46 µM
[2]; average
  IC50: > 400 µM
[3]; average
  IC50: 26.6 µM

## NC1=N[C@](CF)(c2cc(C#Cc3ccc(OC4CCC4)cn3)ccc2F)C[C@@H](C(F)(F)F)O1 [Example 128, (4S,6S)-4-(5-((5-cyclobutoxypyridin-2-yl)ethynyl)-2-fluorophenyl)-4-(fluoromethyl)-6-(trifluoromethyl)-5,6-dihydro-4H-1,3-oxazin-2-amine]
[1]; HEK293, HEK cells, average
  IC50: 5.98 µM
[2]; average
  IC50: 1060 µM
[3]; average
  IC50: 20.5 µM

## CNC(=O)c1ccnc(C#Cc2ccc(F)c([C@]3(CF)C[C@@H](C(F)(F)F)OC(N)=N3)c2)c1 [Example 129, 2-((3-((4S,6S)-2-amino-4-(fluoromethyl)-6-(trifluoromethyl)-5,6-dihydro-4H-1,3-oxazin-4-yl)-4-fluorophenyl)ethynyl)-N-methylisonicotinamide]
[1]; HEK293, HEK cells, average
  IC50: > 15.6 µM
[2]; average
  IC50: > 400 µM
[3]; average
  IC50: > 40 µM

## NC1=N[C@](CF)(c2cc(C#Cc3cccc4[nH]ccc34)ccc2F)C[C@@H](C(F)(F)F)O1 [Example 130, (4S,6S)-4-(5-((1H-indol-4-yl)ethynyl)-2-fluorophenyl)-4-(fluoromethyl)-6-(trifluoromethyl)-5,6-dihydro-4H-1,3-oxazin-2-amine]
[1]; HEK293, HEK cells, average
  IC50: 2.08 µM
[2]; average
  IC50: 578 µM
[3]; average
  IC50: 5.62 µM

## NC1=N[C@](CF)(c2cc(C#Cc3ccc4[nH]ccc4c3)ccc2F)C[C@@H](C(F)(F)F)O1 [Example 131, (4S,6S)-4-(5-((1H-indol-5-yl)ethynyl)-2-fluorophenyl)-4-(fluoromethyl)-6-(trifluoromethyl)-5,6-dihydro-4H-1,3-oxazin-2-amine]
[1]; HEK293, HEK cells, average
  IC50: 1.81 µM
[2]; average
  IC50: 381 µM
[3]; average
  IC50: 0.577 µM
